The nature of data set [1]: In vivo pharmacokinetic study after intravenous administration. To be noted: male, Sprague-Dawley, rat, plasma, rats, i.v., 5 mg/kg body weight, mean ± SD (n = 4). On the procedure:
Male Sprague-Dawley rats (250 ± 15 g) were divided into two groups (with four rats per group). […] All collected blood samples were centrifuged at 4000 rpm and 4 °C for 10 min, and supernatant plasma samples were obtained and frozen at -80 °C for further analysis. Quantitative analysis of MPT0B291 in rat plasma by an ultra-precision liquid chromatographic tandem mass spectroscopic (UPLC-MS/MS) method was performed using an Agilent 1290 Infinity II LC System (Agilent, Wilmington, DE, USA) coupled with an Agilent 6470 triple quadrupole LC/MS system (Agilent Technologies, Santa Clara, CA, USA). Optimized chromatographic separation of MPT0B291 was conducted with an ACQUITY UPLC BEH C18 column (1.7 μm, 2.1 × 100 mm; Waters, Milford, MA, USA) at an oven temperature of 40 °C. The mobile phase was 0.1% (v/v) formic acid in water (mobile phase A) and acetonitrile containing 0.1% (v/v) formic acid (mobile phase B) with gradient elution at a flow rate of 0.3 mL/min. All analytical procedures were evaluated with positive electrospray ionization (ESI). The LC gradient was programmed in linear steps as follows: 0~0.5 min, 5% mobile phase B (v/v); 0.5~1 min, 5% mobile phase B to 100% mobile phase B (v/v); 1~2.8 min, 100% mobile phase B; 2.8~3 min, 100% mobile phase B to 5% mobile phase B (v/v); and 3~4 min, 5% mobile phase B (v/v). Quantification was achieved using the multiple reaction monitoring (MRM) mode at m/z 344.1 → 91.0 for MPT0B291. The following PK parameters were determined: the area under the concentration-time curve (AUC), maximum peak concentration (Cmax), time of maximum peak concentration (Tmax), and mean residence time (MRT). These parameters were determined by DAS software vers. 2.0. All data are presented as mean ± standard deviation (SD).

Data set [2] in a line: In vitro drug release by dialysis bag. In kind it is physicochemical. To be noted: 0.25 mg/mL in propylene glycol, pH 7.4 phosphate buffer with 1% Tween 80, 37 °C. Here is the method:
The dialysis bag was subsequently placed into 25 mL of release medium (PBS) containing 1% v/v Tween 80. The temperature was maintained at 37.0 ± 0.5 °C, and the medium was stirred at a speed of 100 rpm. MPT0B291 which had been dissolved in propylene glycol (free MPT0B291; 0.25 mg/mL) was used as a control and was treated in the same manner. During a period of 48 h, the surrounding environment was maintained by replacing 2 mL of the release medium with an equal volume of fresh medium at regular intervals. The extraction solution was solubilized in 500 μL of acetonitrile and assayed by HPLC.

The test system of data set [3] is healthy Balb/c female mice. The data set can be described thus: Maximum tolerated dose, single i.v. dose. In kind it is in vivo. On the procedure: The single-dose study was conducted using healthy female mice with four animals per group.
A further data set concerns MIA PaCa-2 cells. Nature of the data set: Cell viability (MTT) assay. In kind it is cell-based. To be noted: Homo sapiens, 24 h of exposure, read-out: 50% inhibitory concentration (IC50). On the procedure: Briefly, MIA PaCa-2 cells were seeded (5 × 10^3 cells/well) in 96-well culture plates. After 24 h of incubation in a humidified incubator at 37 °C with 5% CO2, the medium of adherent cells was replaced with serum-free culture medium and incubated with 200 μL of serial dilutions of HSA-NPs (0.01~1000 μg/mL) and MPT0B291-HSAX NPs ([…]). After another 24 h, 100 µL of MTT (500 μg/mL in PBS, pH 7.4) was added and incubated at 37 °C for 2 h. The medium was then removed, and 100 µL of DMSO was added to each well to dissolve the crystals. The optical density (OD) was measured at 540 nm using a microplate reader (Cytation™ 3 Cell Imaging Multi-Mode Reader, BioTek, Winooski, VT, USA). The cell survival rate was calculated as follows:(3) Cell survival rate (%)=Absorbance value of test solution group /Absorbance value of blank solution group ×100%

Structures are written as SMILES.

As a reminder, the AUC(0-inf) is the area under the concentration-time curve extrapolated to infinity. In general, clearance refers to a measure of how efficiently the substance is removed, as volume per time. What is called MRT is a mean duration of stay, worked out from the concentration-time curve.

Consider `O=C(/C=C/c1cccc(S(=O)(=O)n2ccc3cccnc32)c1)NO` [MPT0B291], for which the AUC(0-inf) in data set [1] stood at 293 ± 39.2 ng·h/mL. In addition, in data set [1] (read-out: AUC0–24h), the AUC(0-t) is 291 ± 39.7 ng·h/mL. In data set [1] (read-out: CL (clearance)), the clearance turned out to be 288 ± 36.7 mL/min/kg. Besides, in data set [1] (read-out: MRT (mean residence time)), the MRT is 1.86 ± 0.66 h. In data set [1] (read-out: Vss (volume of distribution at steady state)), the Vd was found to be 32.6 ± 12.3 L/kg. The half-life in data set [1] (read-out: t1/2 (elimination half-life) (converted)) is 2.07 ± 0.64 h. In addition, in data set [2], the “Drug released within 1 h” value was 60% and the “Drug released within 8 h” value is given as around 100%. Also, the “Mortality after single i.v. dose of 150 mg/kg BW” value in data set [3] (n = 4) was “one mouse was found dead after 24 h and another one also died on the following day”. The “Maximum tolerated dose (MTD)” value in data set [3] (single dose, i.v. route) is recorded as “approximately 75 mg/kg BW”. Besides, in the data set on MIA PaCa-2 cells, the IC50 worked out at 4.71 µM.

Source of the values: publication PMC8541575, “Optimization and Development of Selective Histone Deacetylase Inhibitor (MPT0B291)-Loaded Albumin Nanoparticles for Anticancer Therapy” (Pharmaceutics, 2021).
